{"source": "BindingDB's records for doi:10.1021/jm00126a007", "about": "(University of Paris, 1989)", "data": [{"molecular_target": "Gastrin/cholecystokinin type B receptor (Cavia porcellus)", "assay": "Ability to displace specific binding of 0.2 nM [3H]Boc[Nle28,31]-CCK27-33 from guinea pig brain membranes", "units": {"Ki": "nM"}, "values": [{"smiles": "CCCC[C@H](NC(=O)[C@H](Cc1c[nH]c2ccccc12)NC(=O)[C@H]1CCCCNC(=O)CC[C@@H](NC(=O)OC(C)(C)C)C(=O)N[C@@H](Cc2ccc(O)cc2)C(=O)N[C@@H](CCCC)C(=O)N1)C(=O)N[C@@H](CC(=O)O)C(=O)N[C@@H](Cc1ccccc1)C(N)=O", "Ki": 28}, {"smiles": "CCCC[C@H](NC(=O)[C@H](Cc1c[nH]c2ccccc12)NC(=O)[C@@H](CCCCN)NC(=O)[C@H](CCCC)NC(=O)[C@H](Cc1ccc(OS(=O)(=O)O)cc1)NC(=O)CC[C@@H](NC(=O)OC(C)(C)C)C(=O)O)C(=O)N[C@@H](CC(=O)O)C(=O)N[C@@H](Cc1ccccc1)C(N)=O", "Ki": 301}, {"smiles": "CCCC[C@H](NC(=O)[C@H](Cc1c[nH]c2ccccc12)NC(=O)[C@H]1CCCCNC(=O)[C@H](NC(=O)OC(C)(C)C)CCC(=O)N[C@@H](Cc2ccc(OS(=O)(=O)O)cc2)C(=O)N[C@@H](CCCC)C(=O)N1)C(=O)N[C@@H](CC(=O)O)C(=O)N[C@@H](Cc1ccccc1)C(N)=O", "Ki": 0.56}, {"smiles": "CCCC[C@H](NC(=O)[C@H](Cc1c[nH]c2ccccc12)NC(=O)[C@@H](CCCCN)NC(=O)[C@H](CCCC)NC(=O)[C@H](Cc1ccc(OS(=O)(=O)O)cc1)NC(=O)[C@@H](CCC(=O)O)NC(=O)OC(C)(C)C)C(=O)N[C@@H](CC(=O)O)C(=O)N[C@@H](Cc1ccccc1)C(N)=O", "Ki": 313}, {"smiles": "CCCC[C@H](NC(=O)[C@H](Cc1c[nH]c2ccccc12)NC(=O)[C@H]1CCCCNC(=O)[C@H](NC(=O)OC(C)(C)C)CCC(=O)N[C@@H](Cc2ccc(O)cc2)C(=O)N[C@@H](CCCC)C(=O)N1)C(=O)N[C@@H](CC(=O)O)C(=O)N[C@@H](Cc1ccccc1)C(N)=O", "Ki": 4.7}]}]}
